One data set deals with ROS in BV-2 cells. Nature of the data set: Hypoxia-induced ROS generation (DCF), BV-2. Format: cell-based, murine.
Data set [1] concerns p38. The data set can be described thus: Western blot of hypoxia-induced signaling, BV-2: p38. In kind it is cell-based, murine. The following applies: BV-2 cells, 10 min hypoxia, BBD 20 μM. How it is done: (§1) On the day of experiment, culture media were replaced with glucose-free DMEM, then, gassed with 85% N2, 10% H2, and 5% CO2 for various time periods in the absence or presence of various doses of BBD.
(§2) Samples containing 25 μg of protein were separated on 12.5% (w/v) sodium dodecyl sulfate-polyacrylamide gels, and transferred to immobilon polyvinylidenedifluoride membranes (Millipore, Bedford, USA). The membranes were incubated for 2 h with 5% (w/v) dry skim milk in TBST buffer to block non-specific binding, then ERK, p38 JNK, AKT-1, COX-2, caspase-3, β-actin proteins for neuron cells were detected by a chemiluminescence detection system according to the manufacturer’s instructions (ECL, Amersham, Berkshire, UK).

The subject of data set [2] is JNK. Nature of the data set: Western blot of hypoxia-induced signaling, BV-2: JNK. The following applies: BV-2 cells, 10 min hypoxia, BBD 20 μM. In kind it is cell-based, murine. How it is done: as §1, §2
For another data set, the system named is AKT-1. The data set can be described thus: Western blot of hypoxia-induced signaling, BV-2: AKT-1. In kind it is cell-based, murine. The conditions noted are these: BV-2 cells, 10 min hypoxia, BBD 20 μM. The protocol: as §1, §2
The test system of a further data set is COX-2. Nature of the data set: Western blot of hypoxia-induced signaling, BV-2: COX-2. Format: cell-based, murine. The following applies: BV-2 cells, 10 min hypoxia, BBD 20 μM. How it is done:
as §1, §2
On the technique in general: Immunoblotting shows a protein as a band on a membrane.

For data set [3], the system named is malondialdehyde (MDA) of brain tissue. The data set can be described thus: Lipid peroxidation (MDA) of ischemic brain tissue. Format: in vivo, Sprague–Dawley rats. The following applies: SD rat brain, BBD 10 mg/kg i.p. 90 min after MCAO. How it is done: Twenty-four male Sprague–Dawley (SD) rats (200~250 gm) were purchased from National Animal Center, Taipei, Taiwan and randomly divided into the control (normal saline), and BBD groups. The experiment was approved by Institutional Animal Care and Use Committee, Taichung Veterans General Hospital (IACUC LA-97490). Rats were injected intraperitoneally (i.p.) with BBD (10 mg/kg) 90 min after MACO experiment. Each SD rat was anesthetized with chlorohydrate (400 mg/kg) i.p. and its body temperature was maintained at 37°C with a heating pad (CMA/150). A midline neck incision was made and the right carotid artery was exposed and separated from the vago-sympathetic trunk. The right carotid artery was loosely encircled with a 4-O suture for later occlusion. The SD rat’s head was placed in a stereotaxic frame (David Kopf, CA, USA) with the nose bar positioned 4.0 mm below the horizontal line. Following a midline incision, the skull was partially removed to expose the right middle cerebral artery. […]
Lipid peroxidation is quantified by measuring malondialdehyde (MDA) of PC12 cells and brain tissue of SD rats by lipid peroxidation (LPO) assay kit (Cayman). […] MDA levels were assayed by measuring the amount expressed in 5 × 10^5 cells of PC12 and SD brain tissue, and the absorbance at 500 nm was determined using a microplate reader (spectraMAX 340).

The test system of data set [4] is JNK. The data set can be described thus: Western blot of hypoxia-induced signaling, PC12: JNK. Format: cell-based, rat. The following applies: PC12 cells, 10 min hypoxia (Figure 5C), BBD 20 μM. How it is done:
as §1, §2

A further data set relates to PGE2. The data set can be described thus: Hypoxia-induced PGE2 release (ELISA), BV-2. In kind it is cell-based, murine. The following applies: BV-2 cells, hypoxia 30 min, BBD 10 and 20 μM. The protocol: as §1
(§3) Cytokines (IL-1β, IL-6) and PGE2 were measured using ELISA kits (R&D, Minneapolis, MN, USA). The absorbance at 450 nm was determined using a microplate reader (spectraMAX 340).

In the next data set the test system is PC12 cells. The data set can be described thus: MTT cell viability under hypoxia, PC12. The following applies: hypoxia 30 min, BBD 1 to 20 μM. Format: cell-based, rat. How it is done: (§4) Murine BV-2 microglial cell line was maintained in DMEM supplemented with 10% (v/v) FBS, 100 U/ml penicillin and 100 μg/ml streptomycin (P/S) in a humidified incubator under 5% CO2 at 37°C. Rat pheochromacytoma PC12 cell line was maintained in DMEM supplemented with 10% FBS, 5% horse serum, P/S at 37°C under 5% CO2. Confluent cultures were passaged by trypsinization. In all experiments, the cells were treated with BBD immediately before hypoxia. BBD was dissolved in DMSO. The final concentration of DMSO added to cells never exceeded 0.1% (v/v).
as §1
Cell viability was measured using blue formazan that was metabolized from colorless 3-(4,5-dimethyl-thiazol-2-yl)-2,5-diphenyl tetrazolium bromide (MTT) by mitochondrial dehydrogenases, which are active only in live cells. PC12 or BV2 cells were preincubated in 24-well plates at a density of 5 × 10^5 cells per well for 24 h. […] One hour later, 200 μl of solubilization solution were added to each well and absorption values read at 540 nm on microtiter plate reader (spectraMAX 340, Molecular Devices, Sunnyvale, CA, USA). Data were expressed as the mean percent of viable cells vs. control.

The next data set deals with BV-2 cells. Nature of the data set: LDH release under hypoxia, BV-2. In kind it is cell-based, murine. The conditions noted are these: BBD 1, 10, 20 μM. The protocol: as §4, §1
Cytotoxicity was determined by measuring the release of LDH. PC12 or BV-2 cells treated with various concentrations of BBD were stressed with hypoxia for one hour and the supernatant was then assayed for LDH activity. An absorbance was read at 490/630 nm using a spectraMAX 340 microtiter plate reader. Data were expressed as the mean percent of viable cells vs. the control.
On the technique in general: LDH leaks from cells whose membrane has failed.

The next data set has as its system IL-1. Nature of the data set: Hypoxia-induced IL-1 production (ELISA), BV-2. In kind it is cell-based, murine. How it is done:
as §1, §3
On the technique in general: An ELISA detects its analyte on a solid surface through an enzyme-linked reagent.

The test system of another data set is neurons. Nature of the data set: Toxicity of BBD alone to neurons. Format: cell-based. The conditions noted are these: BBD 100 μM alone, data not shown.
Data set [5] has as its system p38. The data set can be described thus: Western blot of hypoxia-induced signaling, PC12: p38. The following applies: PC12 cells, 10 min hypoxia (Figure 5C), BBD 20 μM. Format: cell-based, rat. How it is done: as §1, §2
The next data set has as its system MDA in PC12 cells. The data set can be described thus: Lipid peroxidation (MDA) under hypoxia, PC12. In kind it is cell-based, rat. The conditions noted are these: hypoxia 30 min, BBD 1, 10, 20 μM.
Description: as §1
Lipid peroxidation is quantified by measuring malondialdehyde (MDA) of PC12 cells and brain tissue of SD rats by lipid peroxidation (LPO) assay kit (Cayman). This kit works on the principle of condensation of one molecule of either MDA or 4-hydroxyalkenals with two molecules of N-methyl-2-phenylindole to yield a stable chromophore. MDA levels were assayed by measuring the amount expressed in 5 × 10^5 cells of PC12 and SD brain tissue, and the absorbance at 500 nm was determined using a microplate reader (spectraMAX 340).

The test system of the next data set is Caspase-3. The data set can be described thus: Western blot of hypoxia-induced signaling, BV-2: Caspase-3. The following applies: BV-2 cells, 10 min hypoxia, BBD 20 μM. Format: cell-based, murine. The protocol:
as §1, §2

Setting [6] is: BV-2 cells, hypoxia 30 min, BBD 1, 10, 20 μM.

Structures are written as SMILES.

Regarding `COc1cccc(CC(CO)C(CO)Cc2cccc(OC)c2)c1` (stereo not drawn) [BBD, 3-bis (3-methoxybenzyl) butane-1,4-diol], in the data set on ROS in BV-2 cells (setting [6]), the “hypoxia-induced ROS accumulation (DCF signal)” value is on record as “decreasing the ROS accumulation”. Further, the “inhibition of hypoxia-induced ROS production” value in the data set with ROS in BV-2 cells (hypoxia, cell line and concentration not stated) is 40-50%. In the data set on p38 [1], the “reduced expression of p38” value was -8 ± 10%. The “reduced expression of JNK” value with JNK [2] was determined as 88 ± 6%. Further, the “reduced expression of AKT-1” value in the data set on AKT-1 amounted to 45 ± 6%. Moreover, in the data set on COX-2, the “reduced expression of COX-2” value worked out at 13 ± 7%. Besides, the “decrease of MDA level as compared to the ischemia group” value in data set [3] worked out at 6%. The molecule also returned an MDA level in [3] (ischemia group 83 μM) of 78 µM. Also, in the data set with JNK [4], the “suppressed hypoxia induced expression of JNK” value came out at 86 ± 5%. The “hypoxia-induced PGE2 release” value in the data set with PGE2 was “decreased PGE2 release from BV-2 cells significantly”. Besides, the “cell viability (MTT) under hypoxia” value in the data set with PC12 cells was “preserved”. Also, in the data set on BV-2 cells, the “hypoxia-induced LDH release” value is “reduced”. In addition, the “hypoxia-induced IL-1 production” value with IL-1 (setting [6]) is on record as “dose-dependently decreased”. For the same molecule, the “inhibition of hypoxia-induced IL-1 production” value in the data set on IL-1 (hypoxia, concentration not given) is 40-50%. In addition, in the data set with neurons, the toxicity to neurons entry is recorded as “not toxic”. Further, the “suppressed hypoxia induced expression of p38” value in the data set with p38 [5] is on record as -10 ± 9%. For the same molecule, the “hypoxia-induced increase in MDA level” value in the data set with MDA in PC12 cells is recorded as “suppressed”. Moreover, the “reduced expression of Caspase-3” value in the data set with Caspase-3 stood at 50 ± 7%.

These data come from article PMC3975964, “Protective effect of a sesamin derivative, 3-bis (3-methoxybenzyl) butane-1, 4-diol on ischemic and hypoxic neuronal injury” (Journal of Biomedical Science, 2014).
